The values that follow are results of earlier work, collected in patent US20260001860A1, “METHODS AND COMPOSITIONS OF INHIBITING DCN1-UBC12 INTERACTION” (University of Kentucky Research Foundation, priority 2022, published 2026).

For the data set the following is noted: patient population taking either proteasome inhibitor.

`CC(C)C[C@H](NC(=O)[C@H](Cc1ccccc1)NC(=O)c1cnccn1)B(O)O` [bortezomib]: the “patient population exhibiting grade 3 hematologic adverse events (thrombocytopenia and neutropenia)” value is recorded as 50%; the “patients suffering grade 4 adverse events (potentially life-threatening)” value was approximately 15%.
In the case of `CC(C)C[C@H](NC(=O)[C@H](CCc1ccccc1)NC(=O)CN1CCOCC1)C(=O)N[C@@H](Cc1ccccc1)C(=O)N[C@@H](CC(C)C)C(=O)[C@@]1(C)CO1` [carfilzomib], the “patient population exhibiting grade 3 hematologic adverse events (thrombocytopenia and neutropenia)” value is given as 50%; the “patients suffering grade 4 adverse events (potentially life-threatening)” value is on record as approximately 15%.
